# System: POLCO (wild buckwheat)
# Experiment: Pre-emergence herbicidal activity, cool season
# Assay type: in vivo, Polygonum convolvulus
# Conditions: lowest tested rate with 80% or greater inhibition; rates 300, 100, 30, 10 g/ha; about 14 days
# Protocol: (§1) Tables 5 to 8 summarize results of tests conducted as described below to determine the pre-emergence herbicidal activity, in the form of a GR80 value, of illustrative compounds of this invention. […] Compounds of the invention were typically applied at rates of 300, 100, 30, and 10 g/ha. Where herbicidal activity was evident but 80% inhibition was not achieved at the highest rate tested, an asterisk (*) is shown in the following tables.
# (§2) The pre-emergence tests were conducted by the following procedure. Topsoil was sieved to pass through a 1.27 cm screen. Fertilizer was added to the topsoil and the mixture was then sterilized by heating. The topsoil mixture was placed in a pot and compacted to a depth of 1.0 to 1.25 cm from the top of the pot. Seeds of each of several monocotyledonous and dicotyledonous annual plant species were placed on top of the soil. Additional soil was subsequently placed over the seeds to level-fill the pot. A known amount of each test compound dissolved or suspended in an appropriate organic solvent was diluted with a 50:50 mix of acetone and water and applied to the surface of the soil. After treatment the plants were placed in a greenhouse where they received 0.64 cm of overhead irrigation. All subsequent watering consisted of a light overhead mist and/or subirrigation as needed for germination and growth. Tables 5 and 6 below relate to warm season plant species which were placed after pre-emergence treatment in a greenhouse with a 30/21° C. day/night temperature regime. Tables 7 and 8 below relates to cool season plant species placed after pre-emergence treatment in a greenhouse or growth chamber with an 18/13° C. day/night temperature regime.
# (§3) Approximately 14 days after planting and treating, the plants were observed and herbicidal efficacy recorded as percent inhibition by comparison with untreated plants.
# (§4) The plant species usually regarded as weeds which were utilized in the tests are identified in the tables below according to the following legend, in which “d” indicates a dicotyledonous species and “m” a monocotyledonous species. All monocotyledonous species included in the tests herein are grasses.
row,SMILES,"Pre-emergence activity GR80, POLCO"
1,CN(C(=O)n1cnc(S(=O)(=O)C(F)(F)Cl)n1)c1ccccc1 [Example 86],[empty]
2,C#CCN(C)C(=O)n1cnc(S(=O)(=O)C(F)(F)SCC)n1 [Example 54],100 g/ha
3,C#CCN(C)C(=O)n1cnc(S(=O)(=O)C(F)(F)Cl)n1 [Example 90],[empty]
4,O=C(N1CCOCC1)n1cnc(S(=O)(=O)C(F)(F)C(F)F)n1 [Example 60],[empty]
5,CCN(CC)C(=S)n1cnc(S(=O)(=O)C(F)F)n1 [Example 35],100 g/ha
6,CN(C(=O)n1cnc(S(=O)(=O)C(F)(F)C(F)F)n1)c1ccccc1 [Example 62],[empty]
7,O=C(N1CCOCC1)n1cnc(S(=O)(=O)C(F)F)n1 [Example 25],[empty]
8,CN(Cc1ccccc1)C(=O)n1cnc(S(=O)(=O)C(F)(F)C(F)(F)Br)n1 [Example 80],[empty]
9,CN(C(=O)n1cnc(S(=O)(=O)C(F)(F)Br)n1)c1ccccc1 [Example 38],[empty]

# System: VERPE (creeping speedwell)
# Experiment: Pre-emergence herbicidal activity, cool season
# Assay type: in vivo, Veronica persicaria
# Conditions: lowest tested rate with 80% or greater inhibition; rates 300, 100, 30, 10 g/ha; about 14 days
# Protocol: as §1, §2, §3, §4
row,SMILES,"Pre-emergence activity GR80, VERPE"
1,CN(C(=O)n1cnc(S(=O)(=O)C(F)(F)Cl)n1)c1ccccc1 [Example 86],100 g/ha
2,C#CCN(C)C(=O)n1cnc(S(=O)(=O)C(F)(F)SCC)n1 [Example 54],300 g/ha
3,C#CCN(C)C(=O)n1cnc(S(=O)(=O)C(F)(F)Cl)n1 [Example 90],10 g/ha
4,O=C(N1CCOCC1)n1cnc(S(=O)(=O)C(F)(F)C(F)F)n1 [Example 60],[empty]
5,CCN(CC)C(=S)n1cnc(S(=O)(=O)C(F)F)n1 [Example 35],100 g/ha
6,CN(C(=O)n1cnc(S(=O)(=O)C(F)(F)C(F)F)n1)c1ccccc1 [Example 62],[empty]
7,O=C(N1CCOCC1)n1cnc(S(=O)(=O)C(F)F)n1 [Example 25],[empty]
8,CN(Cc1ccccc1)C(=O)n1cnc(S(=O)(=O)C(F)(F)C(F)(F)Br)n1 [Example 80],[empty]
9,CN(C(=O)n1cnc(S(=O)(=O)C(F)(F)Br)n1)c1ccccc1 [Example 38],[empty]

# System: SINAR (wild mustard)
# Experiment: Pre-emergence herbicidal activity, cool season
# Assay type: in vivo, Sinapis arvensis
# Conditions: lowest tested rate with 80% or greater inhibition; rates 300, 100, 30, 10 g/ha; about 14 days
# Protocol: as §1, §2, §3, §4
row,SMILES,"Pre-emergence activity GR80, SINAR"
1,CN(C(=O)n1cnc(S(=O)(=O)C(F)(F)Cl)n1)c1ccccc1 [Example 86],300 g/ha
2,C#CCN(C)C(=O)n1cnc(S(=O)(=O)C(F)(F)SCC)n1 [Example 54],[empty]
3,C#CCN(C)C(=O)n1cnc(S(=O)(=O)C(F)(F)Cl)n1 [Example 90],300 g/ha
4,O=C(N1CCOCC1)n1cnc(S(=O)(=O)C(F)(F)C(F)F)n1 [Example 60],[empty]
5,CCN(CC)C(=S)n1cnc(S(=O)(=O)C(F)F)n1 [Example 35],100 g/ha
6,CN(C(=O)n1cnc(S(=O)(=O)C(F)(F)C(F)F)n1)c1ccccc1 [Example 62],[empty]
7,O=C(N1CCOCC1)n1cnc(S(=O)(=O)C(F)F)n1 [Example 25],[empty]
8,CN(Cc1ccccc1)C(=O)n1cnc(S(=O)(=O)C(F)(F)C(F)(F)Br)n1 [Example 80],[empty]
9,CN(C(=O)n1cnc(S(=O)(=O)C(F)(F)Br)n1)c1ccccc1 [Example 38],[empty]

# System: SASKR (russian thistle)
# Experiment: Pre-emergence herbicidal activity, cool season
# Assay type: in vivo, Salsola kali
# Conditions: lowest tested rate with 80% or greater inhibition; rates 300, 100, 30, 10 g/ha; about 14 days
# Protocol: as §1, §2, §3, §4
row,SMILES,"Pre-emergence activity GR80, SASKR"
1,CN(C(=O)n1cnc(S(=O)(=O)C(F)(F)Cl)n1)c1ccccc1 [Example 86],300 g/ha
2,C#CCN(C)C(=O)n1cnc(S(=O)(=O)C(F)(F)SCC)n1 [Example 54],[empty]
3,C#CCN(C)C(=O)n1cnc(S(=O)(=O)C(F)(F)Cl)n1 [Example 90],30 g/ha
4,O=C(N1CCOCC1)n1cnc(S(=O)(=O)C(F)(F)C(F)F)n1 [Example 60],[empty]
5,CCN(CC)C(=S)n1cnc(S(=O)(=O)C(F)F)n1 [Example 35],[empty]
6,CN(C(=O)n1cnc(S(=O)(=O)C(F)(F)C(F)F)n1)c1ccccc1 [Example 62],[empty]
7,O=C(N1CCOCC1)n1cnc(S(=O)(=O)C(F)F)n1 [Example 25],[empty]
8,CN(Cc1ccccc1)C(=O)n1cnc(S(=O)(=O)C(F)(F)C(F)(F)Br)n1 [Example 80],[empty]
9,CN(C(=O)n1cnc(S(=O)(=O)C(F)(F)Br)n1)c1ccccc1 [Example 38],[empty]

# System: GALAP (catchweed bedstraw)
# Experiment: Pre-emergence herbicidal activity, cool season
# Assay type: in vivo, Galium aparine
# Conditions: lowest tested rate with 80% or greater inhibition; rates 300, 100, 30, 10 g/ha; about 14 days
# Protocol: as §1, §2, §3, §4
row,SMILES,"Pre-emergence activity GR80, GALAP"
1,CN(C(=O)n1cnc(S(=O)(=O)C(F)(F)Cl)n1)c1ccccc1 [Example 86],300 g/ha
2,C#CCN(C)C(=O)n1cnc(S(=O)(=O)C(F)(F)SCC)n1 [Example 54],[empty]
3,C#CCN(C)C(=O)n1cnc(S(=O)(=O)C(F)(F)Cl)n1 [Example 90],[empty]
4,O=C(N1CCOCC1)n1cnc(S(=O)(=O)C(F)(F)C(F)F)n1 [Example 60],[empty]
5,CCN(CC)C(=S)n1cnc(S(=O)(=O)C(F)F)n1 [Example 35],100 g/ha
6,CN(C(=O)n1cnc(S(=O)(=O)C(F)(F)C(F)F)n1)c1ccccc1 [Example 62],[empty]
7,O=C(N1CCOCC1)n1cnc(S(=O)(=O)C(F)F)n1 [Example 25],300 g/ha
8,CN(Cc1ccccc1)C(=O)n1cnc(S(=O)(=O)C(F)(F)C(F)(F)Br)n1 [Example 80],[empty]
9,CN(C(=O)n1cnc(S(=O)(=O)C(F)(F)Br)n1)c1ccccc1 [Example 38],[empty]

# System: STEME (common chickweed)
# Experiment: Pre-emergence herbicidal activity, cool season
# Assay type: in vivo, Stellaria media
# Conditions: lowest tested rate with 80% or greater inhibition; rates 300, 100, 30, 10 g/ha; about 14 days
# Protocol: as §1, §2, §3, §4
row,SMILES,"Pre-emergence activity GR80, STEME"
1,CN(C(=O)n1cnc(S(=O)(=O)C(F)(F)Cl)n1)c1ccccc1 [Example 86],[empty]
2,C#CCN(C)C(=O)n1cnc(S(=O)(=O)C(F)(F)SCC)n1 [Example 54],[empty]
3,C#CCN(C)C(=O)n1cnc(S(=O)(=O)C(F)(F)Cl)n1 [Example 90],[empty]
4,O=C(N1CCOCC1)n1cnc(S(=O)(=O)C(F)(F)C(F)F)n1 [Example 60],[empty]
5,CCN(CC)C(=S)n1cnc(S(=O)(=O)C(F)F)n1 [Example 35],[empty]
6,CN(C(=O)n1cnc(S(=O)(=O)C(F)(F)C(F)F)n1)c1ccccc1 [Example 62],[empty]
7,O=C(N1CCOCC1)n1cnc(S(=O)(=O)C(F)F)n1 [Example 25],[empty]
8,CN(Cc1ccccc1)C(=O)n1cnc(S(=O)(=O)C(F)(F)C(F)(F)Br)n1 [Example 80],[empty]
9,CN(C(=O)n1cnc(S(=O)(=O)C(F)(F)Br)n1)c1ccccc1 [Example 38],[empty]

# System: SETVI (green foxtail)
# Experiment: Pre-emergence herbicidal activity, cool season
# Assay type: in vivo, Setaria viridis
# Conditions: GR80 = lowest tested rate (300, 100, 30, 10 g/ha) with 80% or greater inhibition; approx. 14 days after treating; 18/13° C.
# Protocol: as §1, §2, §3, §4
row,SMILES,Pre-emergence activity (GR80) SETVI
1,CN(Cc1ccccc1)C(=O)n1cnc(S(=O)(=O)C(F)(F)C(F)(F)Br)n1 [Example 80],300 g/ha

# System: PANMI (wild proso millet)
# Experiment: Pre-emergence herbicidal activity, warm season
# Assay type: in vivo, Panicum miliaceum
# Conditions: GR80 = lowest tested rate (300, 100, 30, 10 g/ha) with 80% or greater inhibition; approx. 14 days after treating; 30/21° C.
# Protocol: as §1, §2, §3, §4
row,SMILES,Pre-emergence activity (GR80) PANMI
1,C#CCN(C)C(=O)n1cnc(S(=O)(=O)C(F)(F)SCC)n1 [Example 54],300 g/ha
2,CN(Cc1ccccc1)C(=O)n1cnc(S(=O)(=O)C(F)(F)C(F)(F)Br)n1 [Example 80],300 g/ha

# System: LAMPU (purple deadnettle)
# Experiment: Pre-emergence herbicidal activity, cool season
# Assay type: in vivo, Lamium purpureum
# Conditions: lowest tested rate with 80% or greater inhibition; rates 300, 100, 30, 10 g/ha; about 14 days
# Protocol: as §1, §2, §3, §4
row,SMILES,"Pre-emergence activity GR80, LAMPU"
1,CN(C(=O)n1cnc(S(=O)(=O)C(F)(F)Cl)n1)c1ccccc1 [Example 86],100 g/ha
2,C#CCN(C)C(=O)n1cnc(S(=O)(=O)C(F)(F)SCC)n1 [Example 54],[empty]
3,C#CCN(C)C(=O)n1cnc(S(=O)(=O)C(F)(F)Cl)n1 [Example 90],[empty]
4,O=C(N1CCOCC1)n1cnc(S(=O)(=O)C(F)(F)C(F)F)n1 [Example 60],[empty]
5,CCN(CC)C(=S)n1cnc(S(=O)(=O)C(F)F)n1 [Example 35],300 g/ha
6,CN(C(=O)n1cnc(S(=O)(=O)C(F)(F)C(F)F)n1)c1ccccc1 [Example 62],300 g/ha
7,O=C(N1CCOCC1)n1cnc(S(=O)(=O)C(F)F)n1 [Example 25],300 g/ha
8,CN(Cc1ccccc1)C(=O)n1cnc(S(=O)(=O)C(F)(F)C(F)(F)Br)n1 [Example 80],[empty]
9,CN(C(=O)n1cnc(S(=O)(=O)C(F)(F)Br)n1)c1ccccc1 [Example 38],[empty]
